Assay results: patent US20120309811A1, “P-GLYCOPROTEIN-SPECIFIC NON-COMPETITIVE PEPTIDE AND PEPTIDOMIMETIC MODULATORS” (UNIVERSITE CLAUDE BERNARD - LYON 1, priority 2009, published 2012)
Square brackets hold non-standard residues; d marks the D form. Peptide text beside a SMILES is read from it. * marks the point of attachment. Hyp = O=C(O)[C@@H]1C[C@@H](O)CN1; Cbz = O=C(OCc1ccccc1)*; Boc = CC(C)(C)OC(=O)*; OBn = c1ccc(CO*)cc1; Bn = c1ccc(C*)cc1; OtBu = CC(C)(C)O*

What was measured:
[1] = molecular target: T1, BCRP (Homo sapiens, UniProt Q9UNQ0); experiment: Flow cytometry, inhibition of mitoxantrone efflux in HEK-293 cells transfected with BCRP; assay type: cell-based; conditions: 10 μM compound
T1 construct: expressed in transfected cells; host or cells: HEK-293 (ATCC CRL-1573), pcDNA3.1 expression vector (Invitrogen)
T1 sequence (Q9UNQ0 1-655): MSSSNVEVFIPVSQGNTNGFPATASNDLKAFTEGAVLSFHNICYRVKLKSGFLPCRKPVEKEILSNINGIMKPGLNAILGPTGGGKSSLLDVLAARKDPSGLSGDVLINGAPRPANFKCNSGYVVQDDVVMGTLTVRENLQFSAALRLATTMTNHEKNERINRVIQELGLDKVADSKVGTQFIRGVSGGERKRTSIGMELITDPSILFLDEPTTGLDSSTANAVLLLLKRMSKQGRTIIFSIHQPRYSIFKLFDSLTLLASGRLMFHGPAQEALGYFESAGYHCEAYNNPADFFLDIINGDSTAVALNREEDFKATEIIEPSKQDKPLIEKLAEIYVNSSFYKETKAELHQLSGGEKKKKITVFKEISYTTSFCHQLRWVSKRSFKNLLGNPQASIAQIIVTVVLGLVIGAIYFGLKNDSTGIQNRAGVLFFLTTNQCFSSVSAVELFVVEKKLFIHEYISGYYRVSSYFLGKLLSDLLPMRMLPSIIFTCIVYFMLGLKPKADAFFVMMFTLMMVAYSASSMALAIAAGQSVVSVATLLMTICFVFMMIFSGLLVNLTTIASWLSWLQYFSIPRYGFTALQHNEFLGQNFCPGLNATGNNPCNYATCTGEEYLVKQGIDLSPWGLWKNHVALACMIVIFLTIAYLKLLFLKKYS
Excerpt: (§1) The HEK-293 human fibroblast line (ATCC cell collection CRL-1573) is transfected with either BCRP (Robey R. W. et al. 2003, Br. J. Cancer 89(10) 1971-1978, [32]) or ABCC1, cloned into the pcDNA3.1 expression vector (Invitrogen), or with the empty pcDNA3.1 vector. The NIH3T3 cell line (ATCC CRL-1658) was stably transfected with pHaMDR1/A (Cardarelli et al. 1995 Cancer Res 55 1086-1091, [33]), which is a retroviral vector that expresses the wild-type MDR1 protein. The BHK-21 cell line (ATCC CCL-10) was transfected with MRP1 cloned into the pcDNA3.1 expression vector, or the empty pcDNA3.1 vector. The cells are maintained in culture in DMEM glutamax II (Invitrogen) supplemented with 10% of fetal bovine serum and 1% of penicillin/streptomycin. The data are processed with Sigmaplot V11 (http://www.systat.com/), and the equation for mathematical adjustment of the experimental data for calculating the IC50 values: f=a×(1−exp(−b×x)) (a=slope, b=intercept on the y-axis).
(§2) The cells expressing P-gp, BCRP and MRP, and their corresponding controls, are placed in the presence of 10 and 2 μM of mitoxantrone for the first two transporters and of 1 μM of daunorubicin for the 3rd. Substrate accumulation is carried out for 30 minutes at 37° C. in the presence or absence of varied concentrations of the molecules tested, at a final DMSO (dimethyl sulfoxide) concentration of 0.5%. After washing with PBS (phosphate buffered saline), the cells are incubated in medium containing the same concentrations of molecules tested as previously, for 1 h at 37° C. The intracellular fluorescence of mitoxantrone and daunorubicin anticancer agent is measured with the FACscan flow cytometer (Becton Dickinson, Mountain, View, Calif.). The drugs are excited at 488 nm. The emission of mitoxantrone is measured at 650 nm, whereas the emission of daunorubicin is measured at 530 nm. The effectiveness of the molecules tested is expressed by equation 1: % effectiveness=100×(FA−FBG)/(FC−FBG), where FA corresponds to the intracellular level of substrate measured in the cells overexpressing ABCG2 (corresponding to the lowest level of fluorescence in the absence of inhibitor), FC corresponds to the fluorescence in the control cells transfected with the empty vector (and therefore to the maximum accumulation of substrate in the cells) and FBG corresponds to the fluorescence measured in the absence of substrate and in the presence of inhibitor.
(§3) The inhibitory effect of the compounds is quantified by measuring, by flow cytometry, the efflux of an anticancer drug transported by the pump under consideration, i.e. mitoxantrone for P-gp and BCRP and daunorubicin for MRP1. It is compared with that of the reference product, reversin 121. The products are tested at 10 μM, then at 2 μM for those which block at least 80% of the efflux of mitoxantrone, and for some, a more complete concentration range is tested so as to establish the concentration value producing 50% inhibition, IC50, as indicated in FIG. 3.

[2] = molecular target: T2, P-gp (Homo sapiens, UniProt P08183); experiment: Flow cytometry, inhibition of mitoxantrone efflux in NIH3T3 cells expressing P-gp; assay type: cell-based; conditions: for % pump inhibition at 10 μM of compound, P-gp / inhibition at 1 h, 10 µM: 10 μM compound; for % pump inhibition at 10 μM of compound, P-gp / IC50 / inhibition at 1 h, 10 µM: mitoxantrone efflux; for IC50: mathematical adjustment of experimental points; for inhibition at 1 h, 10 µM: human, probe mitoxantrone, read-out: % pump inhibition at 10 μM of compound, P-gp
T2 construct: expressed in transfected cells; host or cells: NIH3T3 (ATCC CRL-1658), stably transfected with retroviral vector pHaMDR1/A
T2 sequence (P08183 whole entry): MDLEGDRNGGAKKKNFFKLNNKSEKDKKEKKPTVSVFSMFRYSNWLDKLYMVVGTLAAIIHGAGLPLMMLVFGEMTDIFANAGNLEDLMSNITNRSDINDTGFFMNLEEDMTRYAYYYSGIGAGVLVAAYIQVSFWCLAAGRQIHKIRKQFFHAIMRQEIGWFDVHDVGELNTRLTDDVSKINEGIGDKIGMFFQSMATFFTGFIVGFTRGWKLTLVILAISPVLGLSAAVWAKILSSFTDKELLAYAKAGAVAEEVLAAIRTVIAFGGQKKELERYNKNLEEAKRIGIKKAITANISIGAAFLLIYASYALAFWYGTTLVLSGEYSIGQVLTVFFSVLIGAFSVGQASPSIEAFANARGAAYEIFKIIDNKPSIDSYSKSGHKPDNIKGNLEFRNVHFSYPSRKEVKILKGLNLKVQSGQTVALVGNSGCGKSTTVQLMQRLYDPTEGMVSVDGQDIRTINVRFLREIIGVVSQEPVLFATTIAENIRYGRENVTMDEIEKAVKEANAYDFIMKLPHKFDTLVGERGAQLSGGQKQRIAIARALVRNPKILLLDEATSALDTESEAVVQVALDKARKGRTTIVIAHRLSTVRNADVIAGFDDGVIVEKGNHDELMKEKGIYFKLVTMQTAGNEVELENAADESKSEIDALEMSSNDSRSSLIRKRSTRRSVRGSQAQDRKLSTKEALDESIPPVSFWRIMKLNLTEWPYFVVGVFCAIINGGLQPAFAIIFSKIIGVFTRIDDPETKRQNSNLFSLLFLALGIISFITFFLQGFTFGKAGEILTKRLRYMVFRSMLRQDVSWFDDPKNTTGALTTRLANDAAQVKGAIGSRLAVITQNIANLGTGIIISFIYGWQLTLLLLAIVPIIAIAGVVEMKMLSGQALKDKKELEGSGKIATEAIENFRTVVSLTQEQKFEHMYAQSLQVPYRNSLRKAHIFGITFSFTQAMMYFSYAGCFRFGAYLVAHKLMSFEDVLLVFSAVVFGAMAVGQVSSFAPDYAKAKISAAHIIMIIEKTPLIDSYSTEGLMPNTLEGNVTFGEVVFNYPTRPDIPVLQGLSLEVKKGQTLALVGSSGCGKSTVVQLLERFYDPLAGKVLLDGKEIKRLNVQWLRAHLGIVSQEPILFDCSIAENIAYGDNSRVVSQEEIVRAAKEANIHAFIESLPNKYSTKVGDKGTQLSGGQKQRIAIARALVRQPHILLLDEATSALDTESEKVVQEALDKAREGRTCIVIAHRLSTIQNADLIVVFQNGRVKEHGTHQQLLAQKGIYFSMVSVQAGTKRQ
Excerpt: as §1, §2, §3

[3] = molecular target: T3, ABCG2 (Homo sapiens, UniProt Q9UNQ0); design: key: the inhibitor is active (+); it is inactive (−); the effect is unknown (?); conditions: cited from earlier work
T3 sequence (Q9UNQ0 1-655): T1 sequence (Q9UNQ0 1-655)

[4] = molecular target: ABCB1 (Homo sapiens, UniProt P08183); design: key: the inhibitor is active (+); it is inactive (−); the effect is unknown (?); conditions: cited from earlier work
Sequence of ABCB1 (P08183 whole entry): as above

[5] = tested on: NIH3T3 cells expressing or not expressing P-gp; experiment: Cytotoxicity test (MTT), cell survival after 72 h; assay type: cell-based
Procedure: The cells are seeded in a proportion of 10 000 per well in 96-well plates and incubated for 24 hours at 37° C. under 5% CO2. Varied concentrations of compounds Nos 2, 3, 4, 5 and 6, up to 20 times the IC50, are then added. The cytotoxicity is evaluated colorinnetrically with 3-(4,5-dimethylthiazol-2-yl)-2,5-diphenyltetrazolium bromide (MTT).
Increasing concentrations of compound No. 4 or No. 6 are applied to NIH3T3 cells expressing or not expressing P-gp. The cell survival is measured after 72 h and is expressed as a percentage. At 10 times the half-maximum-effect concentration, these two compounds are not toxic. Above this, the toxicity of compound No. 4 remains negligible, while that of compound No. 6 remains limited.

[6] = molecular target: T4, MRP1 (Homo sapiens, UniProt P33527); experiment: Flow cytometry, inhibition of daunorubicin efflux in cells transfected with MRP1; assay type: cell-based; conditions: 10 μM compound
T4 construct: expressed in transfected cells; host or cells: BHK-21 (ATCC CCL-10) with MRP1 in pcDNA3.1; HEK-293 transfected with ABCC1 in pcDNA3.1 is also described
T4 sequence (P33527 whole entry): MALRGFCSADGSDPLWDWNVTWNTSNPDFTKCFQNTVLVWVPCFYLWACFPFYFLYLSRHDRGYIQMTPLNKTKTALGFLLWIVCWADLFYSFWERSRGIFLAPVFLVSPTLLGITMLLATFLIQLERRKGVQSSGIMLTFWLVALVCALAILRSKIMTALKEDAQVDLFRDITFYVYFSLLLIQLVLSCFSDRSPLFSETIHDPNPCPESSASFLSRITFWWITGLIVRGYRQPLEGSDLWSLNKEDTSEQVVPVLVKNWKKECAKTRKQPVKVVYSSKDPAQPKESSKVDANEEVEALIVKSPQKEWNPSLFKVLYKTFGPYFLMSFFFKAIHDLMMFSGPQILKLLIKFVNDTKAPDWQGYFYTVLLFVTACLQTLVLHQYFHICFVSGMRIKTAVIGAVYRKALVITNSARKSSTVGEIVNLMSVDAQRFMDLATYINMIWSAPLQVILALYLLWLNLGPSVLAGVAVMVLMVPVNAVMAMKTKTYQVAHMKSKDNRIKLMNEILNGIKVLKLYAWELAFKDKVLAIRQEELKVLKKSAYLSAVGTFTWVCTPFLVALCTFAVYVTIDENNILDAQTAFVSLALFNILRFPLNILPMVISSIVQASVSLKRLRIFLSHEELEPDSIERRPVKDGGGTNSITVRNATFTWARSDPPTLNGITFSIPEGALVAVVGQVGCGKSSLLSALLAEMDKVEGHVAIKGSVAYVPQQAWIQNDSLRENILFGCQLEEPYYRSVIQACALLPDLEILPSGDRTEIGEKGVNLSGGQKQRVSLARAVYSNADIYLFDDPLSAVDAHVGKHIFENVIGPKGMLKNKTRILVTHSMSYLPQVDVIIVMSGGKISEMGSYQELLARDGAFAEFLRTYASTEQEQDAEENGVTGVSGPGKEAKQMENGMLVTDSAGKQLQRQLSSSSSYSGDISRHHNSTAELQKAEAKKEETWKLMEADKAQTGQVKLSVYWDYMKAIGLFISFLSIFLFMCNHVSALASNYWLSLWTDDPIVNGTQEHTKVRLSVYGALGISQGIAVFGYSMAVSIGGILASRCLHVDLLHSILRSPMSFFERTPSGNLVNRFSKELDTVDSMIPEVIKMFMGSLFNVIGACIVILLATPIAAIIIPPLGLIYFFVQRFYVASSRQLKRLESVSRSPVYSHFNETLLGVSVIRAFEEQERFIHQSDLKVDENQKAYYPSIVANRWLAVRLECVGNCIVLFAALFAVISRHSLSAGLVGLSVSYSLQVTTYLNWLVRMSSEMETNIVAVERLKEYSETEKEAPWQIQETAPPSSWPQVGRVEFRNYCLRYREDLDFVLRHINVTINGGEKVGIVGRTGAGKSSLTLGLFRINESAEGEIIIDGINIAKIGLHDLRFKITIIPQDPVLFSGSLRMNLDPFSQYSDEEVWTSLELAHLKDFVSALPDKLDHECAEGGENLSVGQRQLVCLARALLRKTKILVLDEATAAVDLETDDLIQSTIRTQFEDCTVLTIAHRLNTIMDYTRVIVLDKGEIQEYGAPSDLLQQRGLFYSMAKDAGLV
Excerpt: as §1, §2
The inhibitory effect of the compounds is quantified by measuring, by flow cytometry, the efflux of an anticancer drug transported by the pump under consideration, i.e. mitoxantrone for P-gp and BCRP and daunorubicin for MRP1. It is compared with that of the reference product, reversin 121. […]

[7] = molecular target: ABCC1 (Homo sapiens, UniProt P33527); conditions: cited from earlier work
Sequence of ABCC1 (P33527 whole entry): as above

[8] = phase III; cited from earlier work

Structure (SMILES)	activity of MDR inhibitor on ABCG2 [3]	activity of MDR inhibitor on ABCB1 [4]	IC50 [2] [µM]	activity of MDR inhibitor on ABCC1 [7]	other results
CC(C)(C)OC(=O)[C@H](CCCCNC(=O)OCc1ccccc1)NC(=O)[C@@H]1C[C@@H](OC(=O)Cc2ccccc2)CN1C(=O)OC(C)(C)C (relative stereo) [No. 2, N^α-Boc-trans-L-4-Hyp(COBn)-L-Lys(Z)-OtBu]					% pump inhibition at 10 μM of compound, BCRP [1]: 10.0 ± 7.5%; % pump inhibition at 10 μM of compound, P-gp [2]: 68.0 ± 10.0%
COc1cc2c(cc1OC)CN(CCc1ccc(NC(=O)c3cc(OC)c(OC)cc3NC(=O)c3cnc4ccccc4c3)cc1)CC2 [XR9576 (tariquidar)]	+	+			
CC(C)(C)OC(=O)[C@H](CCCCNC(=O)OCc1ccccc1)NC(=O)[C@@H]1C[C@@H](OCc2ccccc2)CN1C(=O)OC(C)(C)C [No. 4, N^α-Boc-trans-L-4-Hyp(Bn)-L-Lys(Z)-OtBu] (Boc-[Hyp](Bn)-Lys(Cbz)-OtBu)			0.73 ± 0.2		% pump inhibition at 10 μM of compound, BCRP ([1]; 10 µM): 16.6 ± 3.4%; IC50 for P-gp compared with that of reversin 121 [2]: twice as good; % pump inhibition at 10 μM of compound, P-gp [2]: 99.7 ± 11.0%; cytotoxicity ([5]; above 10 times the half-maximum-effect concentration): negligible; cytotoxicity ([5]; at 10 times the half-maximum-effect concentration): not toxic; % pump inhibition at 10 μM of compound, MRP1 [6]: low or zero; inhibition at 1 h, 10 µM ([6]; human, probe daunorubicin, read-out: % pump inhibition at 10 μM of compound, MRP1): < 10%
COc1cc(C(=O)C(=O)N2CCCC[C@H]2C(=O)OC(CCCc2cccnc2)CCCc2cccnc2)cc(OC)c1OC [VX-710 (biricodar)]	+	+		+	
COC(=O)c1cnc2n1CCc1ccccc1C2=C1CCN(CCc2ccc(OCc3ccc4ccccc4n3)cc2)CC1 [R101933 (laniquidar)]		+			
C/C=C/C[C@@H](C)C(=O)[C@H]1C(=O)N[C@@H](C(C)C)C(=O)N(C)CC(=O)N(C)[C@@H](CC(C)C)C(=O)N[C@@H](C(C)C)C(=O)N(C)[C@@H](CC(C)C)C(=O)N[C@@H](C)C(=O)N[C@H](C)C(=O)N(C)[C@@H](CC(C)C)C(=O)N(C)[C@@H](CC(C)C)C(=O)N(C)[C@@H](C(C)C)C(=O)N1C [PSC833 (valspodar)]	−	+			
O[C@@H](COc1cccc2ncccc12)CN1CCN([C@@H]2c3ccccc3[C@@H]3[C@H](c4ccccc42)C3(F)F)CC1 [Ly335979 (zosuquidar)]	−			−	clinical outcome [8]: stopped in phase III because of their adverse effects
CC(C)(C)OC(=O)C(CCCCNC(=O)OCc1ccccc1)NC(=O)C1CC(OC(=O)C2CCCCC2)CN1C(=O)OC(C)(C)C [No. 3, N^α-Boc-trans-L-4-Hyp(COcHex)-L-Lys(Z)-OtBu]			1.68 ± 0.28		inhibition at 1 h, 10 µM ([1]; human, HEK-293 cells transfected with BCRP, probe mitoxantrone, read-out: % pump inhibition at 10 μM of compound, BCRP): 11.2%; IC50 for P-gp compared with that of reversin 121 [2]: better than that of reversin; inhibition at 1 h, 10 µM [2]: 106 ± 13.4%; % pump inhibition at 10 μM of compound, MRP1 ([6]; 10 µM): non measurable
COc1cc2c(cc1OC)CN(CCc1ccc(NC(=O)c3cccc4c(=O)c5cccc(OC)c5[nH]c34)cc1)CC2 [GF120918 (elacridar)]	+	+		−	
CC(C)(C)OC(=O)N[C@@H](CC(=O)OCc1ccccc1)C(=O)N[C@@H](CCCCNC(=O)OCc1ccccc1)C(=O)OC(C)(C)C [Reversin 121, reference compound] (Boc-Asp(OBn)-Lys(Cbz)-OtBu)			1.41 ± 0.34		% pump inhibition at 10 μM of compound, BCRP [1]: 37.2 ± 3.7%; % pump inhibition at 10 μM of compound, P-gp [2]: 75.8 ± 1.6%
CCOC/C=C/c1ccc(-c2nc(-c3ccc(NC(C)C)cc3)c(-c3ccc(NC(C)C)cc3)[nH]2)cc1 [ONT-093 (ontogeny)]		+		−	
CC(C)(C)OC(=O)[C@H](CCCCNC(=O)OCc1ccccc1)NC(=O)[C@@H]1C[C@@H](OCC2CCCCC2)CN1C(=O)OC(C)(C)C [No. 5, N^α-Boc-trans-L-4-Hyp(CH2cHex)-L-Lys(Z)-OtBu]			1.13 ± 0.34		% pump inhibition at 10 μM of compound, BCRP [1]: 18.8 ± 10.0%; inhibition at 1 h, 10 µM [2]: 82.2 ± 10.8%
